Data published in patent US11001590B2, “Pyrazolopyrimidine derivatives” (BAYER ANIMAL HEALTH GMBH, priority 2016, dated 2021).

Columns and labels:
Cooperia curticei = experiment: In vitro assay 5: Cooperia curticei (COOPCU), larval mortality; conditions: 120 h, read-out: activity (percentage of larval mortality)
Protocol: In Vitro Assay 5: Cooperia curticei (COOPCU)
Solvent: Dimethyl Sulfoxide
Approximately 40 nematode larvae (Cooperia curticei) are transferred into a test tube containing the compound solution.
After 5 days percentage of larval mortality is recorded. 100% efficacy means all larvae are killed; 0% efficacy means no larvae are killed.

[1] = test system: Nippostrongylus brasiliensis; experiment: In vitro assay 2: Nippostrongylus brasiliensis (NIPOBR), acetylcholine esterase readout; conditions: adult worms, read-out: activity (reduction of AChE compared to negative control); for inhibition at 1 µg/mL: 1 μg/ml (1 ppm); for inhibition at 10 µg/mL: 10 μg/ml (10 ppm)
How it was run: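 Adult worms were washed in saline with antibiotics/antimycotic, then incubated with compound at 10 μg/ml (10 ppm) or 1 μg/ml (1 ppm) final, from DMSO stock. Acetylcholine esterase activity in a medium aliquot, compared with a negative control, served as the anthelmintic readout.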

[2] = test system: Dirofilaria immitis third-stage larvae; experiment: In vitro assay 4: Dirofilaria immitis (DIROIM L4), motility of larvae; conditions: 72 h
Haemonchus contortus = experiment: In vitro assay 6: Haemonchus contortus (HAEMCO), larval mortality; conditions: Haemonchus contortus, 120 h, read-out: activity (percentage of larval mortality)
Protocol: In Vitro Assay 6: Haemonchus contortus (HAEMCO)
Solvent: dimethyl sulfoxide
Approximately 40 larvae of the red stomach worm (Haemonchus contortus) are transferred into a test tube containing compound solution.
After 5 days the percentage of larval mortality is recorded. 100% efficacy means all larvae are killed, 0% efficacy means no larvae are killed.

C. elegans Slo-1a = C. elegans Slo-1a (Caenorhabditis elegans, UniProt Q95V25); experiment: In vitro assay 1: C. elegans Slo-1a, action at a recombinant C. elegans CHO cell line (membrane potential measurement)
Protocol: In Vitro Assay 1: C. Eleqans Slo-La—Action at a Recombinant C. elegans Cell Line
Cells were cultured at 37° C. and 5% CO2 in MEMalpha with Gutamax I (Invitrogen, Nr.: 32571), supplemented with 10% (v/v) heat inactivated fetal bovine serum (Invitrogen, Nr.: 10500), G418 (1 mg/ml, Invitrogen, Nr.: 10131). Cells were detached using Accutase (Sigma, Nr.: A6964).
Membrane Potential Measurements
Laboratory compound testing was performed on 384-well microtiter plates (MTPs, Greiner, Nr.: 781092). 8000 cells/well were plated onto 384-well MTPs and cultured for 20 to 24 hours at 37° C. and 5% CO2. After removal of the cell culture medium, the cells were washed once with tyrode (150 mM NaCl, 0.3 mM KCl, 2 mM CaCl2, 1 mM MgCl2, 0.8 mM NaH2PO4, 5 mM Glucose, 28 mM Hepes, pH 7.4) and then loaded with the voltage sensitive dye of the Membrane Potential Assay Kit diluted in tyrode for 1 h at room temperature.
After starting the measurement of fluorescence using a FLIPR Tetra (Molecular Devices, Exc. 510-545 nm, Emm. 565-625 nm), test compounds were added followed by the addition of KCl tyrode (final assay concentration: 70 mM KCl, 2 mM CaCl2, 1 mM MgCl2, 0.8 mM NaH2PO4, 5 mM Glucose, 28 mM Hepes, pH 7.4, including the voltage sensitive dye). The measurement was completed after 7 minutes.

[3] = test system: Litomosoides sigmodontis third-stage larvae; experiment: In vitro assay 7: Litomosoides sigmodontis L3 (LTMOSI), motility; conditions: 72 h, reduction of motility vs negative control, 72 h incubation
[4] = log P by HPLC on reversed phase columns (Method L0; [a] acidic, [b] neutral range)
Protocol: Calibration was done with straight-chain alkan-2-ones (with 3 to 16 carbon atoms) with known log P values (measurement of log P values using retention times with linear interpolation between successive alkanones). Lambda-max-values were determined using UV-spectra from 200 nm to 400 nm and the peak values of the chromatographic signals.

[5] = test system: Dirofilaria immitis microfilariae; experiment: In vitro assay 3: Dirofilaria immitis microfilariae (DIROIM L1), motility; conditions: 72 h, reduction of motility vs negative control, 72 h incubation

Sequence of C. elegans Slo-1a (Q95V25 whole entry): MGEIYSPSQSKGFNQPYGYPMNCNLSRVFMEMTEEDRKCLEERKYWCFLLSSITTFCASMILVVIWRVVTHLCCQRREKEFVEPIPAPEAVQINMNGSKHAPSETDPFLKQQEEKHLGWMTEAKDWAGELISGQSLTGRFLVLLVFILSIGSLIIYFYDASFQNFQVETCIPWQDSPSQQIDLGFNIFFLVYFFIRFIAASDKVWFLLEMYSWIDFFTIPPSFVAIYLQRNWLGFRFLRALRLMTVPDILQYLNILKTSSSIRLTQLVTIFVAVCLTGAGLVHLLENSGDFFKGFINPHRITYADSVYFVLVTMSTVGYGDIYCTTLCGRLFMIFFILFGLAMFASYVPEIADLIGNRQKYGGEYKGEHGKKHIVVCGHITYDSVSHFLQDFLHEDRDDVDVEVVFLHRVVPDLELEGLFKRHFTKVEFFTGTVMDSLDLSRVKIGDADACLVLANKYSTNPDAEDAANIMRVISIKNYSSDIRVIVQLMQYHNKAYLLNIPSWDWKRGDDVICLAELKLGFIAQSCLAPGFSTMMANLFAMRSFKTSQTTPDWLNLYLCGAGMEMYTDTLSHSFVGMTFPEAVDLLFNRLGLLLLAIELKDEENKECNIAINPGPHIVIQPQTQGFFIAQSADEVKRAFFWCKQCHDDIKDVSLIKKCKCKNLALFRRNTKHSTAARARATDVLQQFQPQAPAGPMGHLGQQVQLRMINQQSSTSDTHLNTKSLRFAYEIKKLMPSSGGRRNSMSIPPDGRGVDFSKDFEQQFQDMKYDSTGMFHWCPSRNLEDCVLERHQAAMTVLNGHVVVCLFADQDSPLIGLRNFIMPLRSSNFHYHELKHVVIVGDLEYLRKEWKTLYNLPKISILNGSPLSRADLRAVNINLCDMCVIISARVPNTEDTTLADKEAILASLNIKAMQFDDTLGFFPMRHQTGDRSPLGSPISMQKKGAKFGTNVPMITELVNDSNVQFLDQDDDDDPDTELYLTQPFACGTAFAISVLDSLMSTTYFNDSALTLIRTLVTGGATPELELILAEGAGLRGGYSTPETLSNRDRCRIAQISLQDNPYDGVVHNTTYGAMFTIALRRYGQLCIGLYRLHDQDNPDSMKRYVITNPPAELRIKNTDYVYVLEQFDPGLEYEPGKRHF

SMILES | mortality at 20 ppm (Cooperia curticei) | inhibition at 1 µg/mL [1] | EC50 [2] | mortality at 4 ppm (Haemonchus contortus) | EC50 (C. elegans Slo-1a) | EC50 [3] | chromatographic logP [4] | EC50 [5] | inhibition at 10 µg/mL [1] | mortality at 20 ppm (Haemonchus contortus)
Cc1nn2c(C3CC3)c(C(=O)N[C@H]3CCOc4ccccc43)cnc2c1-c1cccc(F)c1Cl [Example 472] | 80% | > 80% | < 0.1 µg/mL | 80% | 1.58 nM | < 0.1 µg/mL | 3.72 | < 0.1 µg/mL | – | –
Cc1nn2c(N3CCOCC3)c(C(=O)N[C@H]3CCOc4ccccc43)cnc2c1-c1cccc(Cl)c1Cl [Example 517] | 100% | > 80% | < 0.1 µg/mL | – | 0.631 nM | < 0.1 µg/mL | 3.51 | < 0.1 µg/mL | > 80% | 100%
Cc1nn2c(N(C)C)c(C(=O)N[C@H]3CCOc4ccccc43)cnc2c1-c1cccc(Cl)c1Cl [Example 518] | 100% | > 80% | < 0.1 µg/mL | – | 1 nM | < 0.1 µg/mL | 3.94 | < 0.1 µg/mL | > 80% | 100%
COc1c(F)cc(F)c(-c2c(C)nn3c(N4CCOCC4)c(C(=O)N[C@H]4CCOc5ccccc54)cnc23)c1F [Example 531] | 100% | > 80% | < 0.1 µg/mL | – | 1 nM | < 0.1 µg/mL | 2.88 | < 0.1 µg/mL | – | 100%
